Source: patent US20220280661A1, “GLUCOCORTICOID RECEPTOR RADIOLIGANDS AND METHODS FOR THEIR PREPARATION AND USE” (The Regents of the University of California, priority 2019, published 2022)
Where two headings read alike, the source gives them in different places.

Key:
GR [1] = molecular target: T1, GR (Homo sapiens, UniProt P04150); assay: 3H-dexamethasone displacement assay on cells (Ki); format: binding
T1 construct: evaluated using ^3H-ligand displacement assays on cells; endogenous in cells; host or cells: DU145
T1 sequence (P04150 1-777): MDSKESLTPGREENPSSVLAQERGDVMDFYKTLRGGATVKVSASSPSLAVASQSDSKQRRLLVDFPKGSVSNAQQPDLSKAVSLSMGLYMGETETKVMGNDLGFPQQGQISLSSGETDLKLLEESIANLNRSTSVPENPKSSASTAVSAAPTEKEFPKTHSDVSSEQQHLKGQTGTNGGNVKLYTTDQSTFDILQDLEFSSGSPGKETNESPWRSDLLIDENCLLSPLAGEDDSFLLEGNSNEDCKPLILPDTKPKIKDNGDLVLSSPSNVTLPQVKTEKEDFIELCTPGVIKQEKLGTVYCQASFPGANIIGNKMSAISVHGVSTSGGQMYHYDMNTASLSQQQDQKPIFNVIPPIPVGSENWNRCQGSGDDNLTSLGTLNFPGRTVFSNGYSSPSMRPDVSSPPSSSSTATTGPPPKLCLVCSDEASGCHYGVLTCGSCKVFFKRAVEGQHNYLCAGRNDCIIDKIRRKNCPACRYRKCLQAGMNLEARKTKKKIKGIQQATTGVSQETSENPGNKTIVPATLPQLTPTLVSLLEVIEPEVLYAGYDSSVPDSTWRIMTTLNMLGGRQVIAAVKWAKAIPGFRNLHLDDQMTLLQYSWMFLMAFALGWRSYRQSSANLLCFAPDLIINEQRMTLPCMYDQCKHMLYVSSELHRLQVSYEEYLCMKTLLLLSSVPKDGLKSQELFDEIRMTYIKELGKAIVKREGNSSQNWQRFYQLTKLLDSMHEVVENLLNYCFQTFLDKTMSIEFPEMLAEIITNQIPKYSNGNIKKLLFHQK
Procedure: Statistics. All statistical analysis was performed using PRISM v8.0 software. An unpaired, two-tailed Student's t test was used to determine statistically significant differences in the data. P<0.05 was reported as statistically significant. For the determination of Ki, the data were fit with a one site nonlinear regression model.
The racemic mixture of the phenol 27 was resolved using a chiral Lux® 5p Cellulose-1 stationary phase with an isocratic mobile phase of 30% water, 70% acetonitrile, and 0.1% trifluoroacetic acid (v v) (FIG. 8A). Several milligrams of one peak were isolated and the compound was recrystallized in hexanes.
The Ki were calculated using a one site Ki fit nonlinear regression with Prism v8.0. The data are representative of two independent assays.

[2] = Plasma protein binding, rapid equilibrium dialysis, mouse plasma; format: in vitro ADME; conditions: mouse, plasma, pH 7.4, mouse plasma
Procedure: (§1) Plasma Protein Binding Studies. The rapid equilibrium dialysis (RED) device inserts along with a Teflon base plate (Pierce, Rockford, Ill.) were used for the binding studies. The pH of the human or mouse plasma was adjusted to 7.4 prior to the experiment. DMSO stocks (1 mM) were spiked into the plasma to make a final concentration of 2 μM. The spiked plasma solutions (300 μL) were placed into the sample chamber (indicated by the red ring); and 500 μL of PBS buffer, pH 7.4, was placed into the adjacent chamber. The plate was incubated at 37° C. on an orbital shaker (250 rpm) for 4 hours.
(§2) After 4 hours, from the RED plate, aliquots (100 μL) were removed from each side of the insert (plasma and buffer) and dispensed into the 96-well plate. Subsequently, 100 μL of blank plasma was added to the buffer samples and 100 μL of blank buffer was added to all the collected plasma samples. 300 μL of quench solution (50% acetonitrile, 50% methanol, and 0.05% formic acid, warmed up at 37° C.) containing internal standards was added to each well. Plates were sealed, vortexed, and centrifuged at 4° C. for 15 minutes at 4000 rpm. The supernatant was transferred to fresh plates for LC/MS/MS analysis. The sample were analyzed on LC/MS/MS using an AB Sciex API 4000 instrument, coupled to a Shimadzu LC-20AD LC Pump system. Analytical samples were separated using a Waters Atlantis T3 dC18 reverse phase HPLC column (20 mm×2.1 mm) at a flow rate of 0.5 mL/min. The mobile phase consisted of 0.1% formic acid in water (solvent A) and 0.1% formic acid in acetonitrile (solvent B).
(§3) The percentage of test compound bound to protein was calculated by the following equations:
(§4) % Free=(Concentration in buffer chamber/Concentration in plasma chamber)×100%

plasma protein [3] = assay: as above; format: in vitro ADME
Procedure: as §1, §2, §3, §4

[4] = Plasma protein binding, rapid equilibrium dialysis, human plasma; format: in vitro ADME; conditions: human, plasma, pH 7.4, human plasma
Procedure: as §1, §2, §3, §4

plasma protein [5] = assay: as above; format: in vitro ADME
Procedure: as §1, §2, §3, §4

GR [6] = molecular target: T2, GR (Mus musculus, UniProt P06537); assay: 11C radiotracer biodistribution with dexamethasone or Dex-CD blocking; format: in vivo; conditions: for radiotracer uptake, Adrenal / radiotracer uptake, Blood / radiotracer uptake, Bone / radiotracer uptake, Brain / radiotracer uptake, Brown Fat / radiotracer uptake, Heart / radiotracer uptake, Kidney / radiotracer uptake, Lg. Int. / radiotracer uptake, Liver / radiotracer uptake, Lung / radiotracer uptake, Muscle / radiotracer uptake, Pancreas / radiotracer uptake, Sm. Int. / radiotracer uptake, Spleen / radiotracer uptake, Stomach: 20 min after injection
T2 construct: from tissue; host or cells: tissues of C57BL6/J mice (intact or adrenalectomized), in vivo
T2 sequence (P06537 1-792): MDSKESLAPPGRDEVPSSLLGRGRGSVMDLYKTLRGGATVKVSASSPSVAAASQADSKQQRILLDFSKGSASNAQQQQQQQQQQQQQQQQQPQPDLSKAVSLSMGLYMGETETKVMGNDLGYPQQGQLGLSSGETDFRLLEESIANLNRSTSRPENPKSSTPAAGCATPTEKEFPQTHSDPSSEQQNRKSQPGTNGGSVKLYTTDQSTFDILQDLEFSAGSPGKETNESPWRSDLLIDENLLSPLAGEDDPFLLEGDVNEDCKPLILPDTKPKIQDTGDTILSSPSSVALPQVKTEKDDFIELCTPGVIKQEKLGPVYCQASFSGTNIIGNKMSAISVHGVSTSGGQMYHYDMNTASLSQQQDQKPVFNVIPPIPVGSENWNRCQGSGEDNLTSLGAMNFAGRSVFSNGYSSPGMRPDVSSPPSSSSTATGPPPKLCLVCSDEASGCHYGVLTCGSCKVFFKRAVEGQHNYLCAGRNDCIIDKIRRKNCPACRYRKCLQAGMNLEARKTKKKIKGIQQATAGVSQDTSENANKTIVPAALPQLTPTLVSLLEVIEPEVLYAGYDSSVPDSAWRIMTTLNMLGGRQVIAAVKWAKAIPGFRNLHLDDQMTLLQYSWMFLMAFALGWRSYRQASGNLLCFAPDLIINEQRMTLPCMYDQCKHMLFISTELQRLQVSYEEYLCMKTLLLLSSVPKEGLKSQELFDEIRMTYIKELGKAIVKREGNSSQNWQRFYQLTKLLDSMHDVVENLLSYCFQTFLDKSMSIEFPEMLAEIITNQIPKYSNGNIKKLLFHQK
Procedure: Animal Studies. All animal experiments were performed under the approval of the Institutional Animal Care and Use Committee (IACUC) at UCSF. C57BL6/J mice (4-6 weeks) were purchased from Charles River. All the mice were housed in a dedicated vivarium with free access to food and water. […] Adrenalectomized mice were purchased from Charles River and provided drinking water supplemented with NaCl (aq) per instructions until the time of the tracer biodistribution study.
Biodistribution Studies. Mice were euthanized after radiotracer (7.4-18.5 MBq in 100-150 μL) injection with CO2 (g) asphyxiation and dissected at dedicated time points post injection. The blood and tissues were collected, washed, dried, and weighed. The activity of each tissue was measured with a gamma counter. All data was decay corrected. PRISM software was used to express a percentage (% ID/g) of the injected dose per gram of tissue.
The P value indicates the result of an unpaired, two-tailed Student's t test between the respective treatment group and vehicle (n=5/group).
Table 10 summarizes biodistribution data collected 20 minutes after injection of ^11C-YJH02 among two treatment arms receiving vehicle or one intraperitoneal injection of the water-soluble dexamethasone-cyclodextrin complex at 10 mg/kg one hour prior to radiotracer administration. The P value indicates the result of an unpaired, two-tailed Student's t test between the respective treatment group and vehicle (n=5/group).

[7] = GR in cells, one site Ki fit, read-out: Ki
[8] = DU145 cells, read-out: affinity (3H-dexamethasone displacement curves)
[9] = duplicate, read-out: % Bound (converted)
[10] = read-out: % Bound Average (converted)
[11] = mice given Dex-CD 10 mg/kg intraperitoneal one hour prior to radiotracer

COc1cccc2c1-c1ccc3c(c1C(O)O2)C(C)=CC(C)(C)N3 (centres unmarked) [YJH03]
Ki (GR [1]; [7]): 6.51 nM

COc1cccc2c1-c1ccc3c(c1[C@H](Cc1ccc(F)cc1)O2)C(C)=CC(C)(C)N3 [(S)-YJH08]
Ki (GR [1]; [8]): < 5 nM
Ki (GR [1]; [7]): 2.03 nM

COc1cccc2c1-c1ccc3c(c1[C@@H](Cc1ccc(F)cc1)O2)C(C)=CC(C)(C)N3 [(R)-YJH08]
Ki (GR [1]; [8]): < 5 nM
Ki (GR [1]; [7]): 3.76 nM

CC(C)NCC(O)COc1cccc2ccccc12 (centres unmarked) [Propranolol]
fraction unbound at 4 h, 2 μM [2, 9]: 0.223
fraction unbound at 4 h, 2 μM [2, 10]: 0.22
% Bound (plasma protein [3]; mouse plasma, 2 μM, duplicate): 78.25%
recovery at 4 h, 2 μM (plasma protein [3]; plasma (rapid equilibrium dialysis device), pH 7.4, mouse plasma): 106%
fraction unbound at 4 h, 2 μM [4, 9]: 0.354
fraction unbound at 4 h, 2 μM [4, 10]: 0.354
% Bound (plasma protein [5]; human plasma, 2 μM, duplicate): 64.56%
recovery at 4 h, 2 μM (plasma protein [5]; plasma (rapid equilibrium dialysis device), pH 7.4, human plasma): 104%

COc1cccc2oc(=O)c3c4c(ccc3c12)NC(C)(C)C=C4C [^11C-YJH02]
radiotracer uptake, Adrenal (GR [6]; [11]): 2.37 ± 1.0 % ID/g
radiotracer uptake, Blood (GR [6]; [11]): 1.07 ± 0.1 % ID/g
radiotracer uptake, Bone (GR [6]; [11]): 0.76 ± 0.1 % ID/g
radiotracer uptake, Brain (GR [6]; [11]): 0.34 ± 0.07 % ID/g
radiotracer uptake, Brown Fat (GR [6]; [11]): 3.64 ± 1.0 % ID/g
radiotracer uptake, Heart (GR [6]; [11]): 0.97 ± 0.1 % ID/g
radiotracer uptake, Kidney (GR [6]; [11]): 1.28 ± 0.1 % ID/g
radiotracer uptake, Lg. Int. (GR [6]; [11]): 1.06 ± 0.3 % ID/g
radiotracer uptake, Liver (GR [6]; [11]): 3.75 ± 0.8 % ID/g
radiotracer uptake, Lung (GR [6]; [11]): 1.71 ± 0.2 % ID/g
radiotracer uptake, Muscle (GR [6]; [11]): 0.57 ± 0.1 % ID/g
radiotracer uptake, Pancreas (GR [6]; [11]): 1.76 ± 0.4 % ID/g
radiotracer uptake, Sm. Int. (GR [6]; [11]): 5.80 ± 2.5 % ID/g
radiotracer uptake, Spleen (GR [6]; [11]): 0.76 ± 0.1 % ID/g
radiotracer uptake, Stomach (GR [6]; [11]): 1.81 ± 0.3 % ID/g
radiotracer uptake, Adrenal (GR [6]; mice given vehicle): 6.17 ± 0.7 % ID/g
radiotracer uptake, Blood (GR [6]; mice given vehicle): 1.24 ± 0.1 % ID/g
radiotracer uptake, Bone (GR [6]; mice given vehicle): 0.70 ± 0.1 % ID/g
radiotracer uptake, Brain (GR [6]; mice given vehicle): 0.66 ± 0.1 % ID/g
radiotracer uptake, Brown Fat (GR [6]; mice given vehicle): 4.65 ± 1.1 % ID/g
radiotracer uptake, Heart (GR [6]; mice given vehicle): 1.15 ± 0.2 % ID/g
radiotracer uptake, Kidney (GR [6]; mice given vehicle): 1.38 ± 0.4 % ID/g
radiotracer uptake, Lg. Int. (GR [6]; mice given vehicle): 1.63 ± 0.4 % ID/g
radiotracer uptake, Liver (GR [6]; mice given vehicle): 6.78 ± 1.1 % ID/g
radiotracer uptake, Lung (GR [6]; mice given vehicle): 2.07 ± 0.4 % ID/g
radiotracer uptake, Muscle (GR [6]; mice given vehicle): 0.74 ± 0.1 % ID/g
radiotracer uptake, Pancreas (GR [6]; mice given vehicle): 2.70 ± 0.4 % ID/g
radiotracer uptake, Sm. Int. (GR [6]; mice given vehicle): 10.88 ± 2.7 % ID/g
radiotracer uptake, Spleen (GR [6]; mice given vehicle): 1.55 ± 0.1 % ID/g
radiotracer uptake, Stomach (GR [6]; mice given vehicle): 2.51 ± 0.4 % ID/g
brain uptake relative to (±)-^11C-YJH08 (GR [6]; normal mice, 20 min post injection): approximately three fold lower

COc1cccc2c1-c1ccc3c(c1C(OC)O2)C(C)=CC(C)(C)N3 (centres unmarked) [YJH04, 5,10-Dimethoxy-2,5-dihydro-2,2,4-trimethyl-1H-[1]benzopyrano[3,4-f]quinolone]
Ki (GR [1]; [7]): 6.22 nM

CC1=CC(C)(C)Nc2ccc3c(c21)c(=O)oc1cccc(O)c13 [YJH01, 2,5-dihydro-10-hydroxy-5-oxo-2,2,4-trimethyl-1H-[1]benzopyrano [3,4-f]quinoline]
Ki (GR [1]; [7]): 2.35 nM

COc1cccc2oc(=O)c3c4c(ccc3c12)NC(C)(C)C=C4C [YJH02, 2,5-Dihydro-10-methoxy-5-oxo-2,2,4-trimethyl-1H-[1]benzopyrano [3,4-f]quinoline]
Ki (GR [1]; [7]): 2.67 nM
